Patent US8580321B2, “Method for reducing the effects of chemotherapy using flagellin related polypeptides” (priority 2003, dated 2013)

How the values were obtained:
A549 cells = assay: Cell growth inhibition assay (methylene blue) after gamma-irradiation, A549; type: cell-based, human; conditions: 2 μg/ml, with or without 7 or 10 Gy, 72 hours
Method: Tumor cells were seeded in wells of three 96-well plates in 3 different densities (0.5×10^4, 1×10^4 and 2×10^4 cells/well, producing single-cell, spare or semi-contact layer). After cells had attached to plastic, CBLB502 (2 μg/ml) was added to the wells of non-irradiated cells, or 15 min prior to 7 Gy or 10 Gy of gamma-irradiation. Control wells received equal volume of vehicle (PBS). All points were done in quadruplicate. 72 hours after irradiation, medium was replaced with methylene blue in 50%-methanol and the relative numbers of viable cells in wells were measured using spectrophotometer at 650 nm. This experiment was also repeated with fixed dose of 1×10^4 A549 cells/well, CBLB502 was added 1 hour before 5, 10 or 15 Gy of gamma-irradiation (data not shown). We observed a similar effect of flagellin in all tested experiment conditions.

[1] = tested on: MeI-7, MeI-29, HCT116, HT1080, NKE and MAEC cells; assay: Growth inhibition assay after gamma-irradiation in multiple cell lines; type: cell-based; conditions: 2 μg/ml, irradiated (10, 15 Gy) or not, 48 hours
Method: Based on the results using A549 cells, several additional tumor cell lines (human melanoma MeI-7 and MeI-29, colon cancer HCT116, […] HT1080), immortalized kidney epithelial cells (NKE) and normal mouse aortal endothelial cells (MAEC)) were tested in growth inhibition assay after 10 and 15 Gy of gamma-irradiation, as compared with intact control, with or without pretreatment with CBLB502. Cells were seeded in 96-well plates night before the treatments. CBLB502 (2 μg/ml) was added to the wells 4 hrs, 1 hr or 10 min before irradiation (all points were done in quadruplicate). 48 hours later, methylene blue staining was performed to determine the relative amount of the viable cells in the wells. The percent of growth inhibition was calculated from the OD650 in control non-irradiated wells, taken as 0% inhibition.

[2] = type: in vivo, mouse; conditions: for antibody level at 21 day: 21 days after injection
Method: We tested the ability of AA′ to protect mice that were exposed to it. A group of 20 NIH-Swiss mice were subcutaneously injected with 5 μg/mouse (0.2 mg/kg) of AA′. A second injection of a equal dose of AA′ was administered after 21 (10 mice) and 28 days (another 10 mice), with the time elapsed being sufficient for formation of antibodies. The second injection of AA′ was followed by 13 Gy of whole-body gamma irradiation (1 h post-injection).
We also performed an ELISA determination of antibody titers in order to quantify the effect that AA′ has on the immune status of the organism. 96-well plates were coated with flagellin or AA′, […], […], and incubated overnight at +4° C. Blood serum samples collected from mice were added to the wells in several dilutions and incubated overnight followed by 6 hrs reaction with secondary goat anti-mouse IgG HPO-conjugate antibodies. Measurements were performed using a spectrophotometer with a 414 nm filter.

[3] = Cisplatinum-induced weight loss in FVB mice; type: in vivo, mouse; conditions: CBLB502 0.04 mg/kg s.c. 30 min prior to cisplatinum 10 mg/kg i.p., n=3
[4] = Blood urea (QuantiChrom Urea Assay Kit) as renal toxicity of cisplatinum; conditions: 0.04 mg/kg s.c., Day 4 post-treatment, n=3
From the text: Urea was detected in mouse blood serum at Day 4 post-treatment using a QuantiChrom Urea Assay Kit (BioAssay Systems).

small intestinal crypts = assay: BrdU incorporation in small intestinal crypts; type: in vivo, mouse
From the text: Besides a direct inhibition of apoptosis, temporary halt of proliferation followed by repair may be an alternative mechanism of radioprotection, and has been described for other radioprotectors such as TGF-β3 (Booth D., et. al., Int J Cancer. 2000 Apr. 1; 86(1):53-9). Accordingly, we decided to examine the possible influence of CBLB502 (AA′) on the proliferative activity of the cells in small intestine (with and without irradiation) during the first hours after its administration (FIG. 32). CBLB502 or PBS was injected i.p. in mice, followed after 30 min by 15 Gy irradiation (if used). 2 hr after injection (1.5 hr after irradiation if it was applied), BrdU was injected intraperitoneally. Samples of small intestine were obtained after additional 1.5 hours.
We next determined the duration of the CBLB502-induced growth arrest in small intestine. CBLB502 or PBS was injected i.p. in mice, BrdU was injected 1 or 4 hours later and samples of small intestine were obtained after additional 1.5 hours from several mice (samples from three mice are shown) (FIG. 33).

colonic crypts = assay: BrdU incorporation in colonic crypts; type: in vivo, mouse; conditions: BrdU injected 1 hour after CBLB502 i.p.
Method: The colon is much less radiosensitive than small intestine. To further examine the relationship between reduced proliferation in the small intestine and radioprotection, we determined the effect of CBLB502 on BrdU incorporation in the colon. CBLB502 or PBS was injected i.p. in mice, BrdU was injected 1 hour later and samples of […] were obtained after additional 1.5 hours (FIG. 34).

NF-κB = assay: NF-κB-regulated luciferase reporter assay in H116 human colon cancer cells; type: cell-based; conditions: for activation of NF-κB-regulated luciferase reporter: H116 cells, luciferase measured six hours after addition
From the text: While translocation of NF-κB to the nucleus is a crucial step in induction of NF-κB-regulated inhibitors of apoptosis, it is not sufficient in itself. To directly test the ability of selected fragments to induce expression of NF-κB-regulated genes, we performed reporter assay experiments. Flagellin and the AA′, BB′, A′ and B′ fragments were used for treatment of H116 human colon cancer cells carrying luciferase gene under a NF-κB-responsive promoter. The reporter construct contained three NF-κB-binding sites from the E-selectin promoter combined with a Hsp70 minimal promoter that is routinely used for the detection of NF-κB status of cells. Luciferase activity was measured in cell lysates six hours after addition of flagellin or its truncated fragments into the medium. TNF was used as positive control.
In order to study the ability of the AA′ fragments to directly activate NF-κB-regulated transcription, we performed reporter assay experiments as described above for a wide range of concentrations of flagellin, original AA′ and AA′-derived fragments.

Substance	effect on cell numbers (A549 cells)	effect on tumor cell growth [1]	immunogenicity of the original protein removed ([2]; AA′ versus flagellin) [%]	reduction of immunogenicity compared to the original protein ([2]; AA′ versus flagellin)	increase of antibody level at 28 days over 21 day ([2]; serum)	antibody level at 21 day ([2]; serum)	mean weight loss compared to cisplatinum alone, FVB mice [3]	mean OD 490 (blood urea), CLBL502 alone [4]	incorporation of BrdU in intestine, BrdU after 1 hour (small intestinal crypts; BrdU injected 1 hour after CBLB502)	incorporation/DNA synthesis, BrdU after 4 hr (small intestinal crypts; BrdU injected 4 hr after CBLB502)	level of BrdU incorporation, irradiated mice (small intestinal crypts; i.p. 30 min before 15 Gy, NIH-Swiss mice)	DNA synthesis (BrdU incorporation) in crypts, no irradiation (small intestinal crypts; i.p., BrdU 2 hr after injection, NIH-Swiss mice)	BrdU incorporation in colon (colonic crypts)	activation of NF-κB-regulated luciferase reporter (NF-κB)	level of NF-κB-regulated transcription relative to flagellin (NF-κB; reporter assay, over the studied range of concentrations)	NF-κB reporter activity relative to flagellin (NF-κB; very low concentration range)	antibody level at 28 days ([2]; serum, 28 days after injection)
AA′: flagellin fragment (1-177)-Linker-(402-505), SEQ ID NO: 8	no or slight effect	no or only a slight inhibitory effect	> 95	approximately 25 ×	about 10%	~0.8 mg/mL	lower mean weight loss	less than 0.50	reduced as compared to control	even higher than in control	strongly reduced	nearly undetectable	no effect	capable of NF-κB activation	comparable to such of flagellin	more active than flagellin	–
flagellin: Salmonella dublin FliC flagellin, 505 amino acids, SEQ ID NO: 1; recombinant full-length protein	–	–	–	–	–	around 20 mg/ml	–	–	–	–	–	–	–	capable of NF-κB activation	–	–	around 20 mg/ml
